Experimental data from ChEMBL document CHEMBL1201862, “PubChem BioAssay data set” (2004).
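Step 1: Grow cells in 96-well plates. Step 2: Expose to compound for 48 hours at 5 concentrations. Step 3: Interpolate endpoints linearly; if unreached, use highest concentration. GI50 is the concentration that inhibits growth by half.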 Activity calls are given as the source filed them. Cut-off read from the data, not from the text of the source: active = GI50 up to about 1.1 µM and inactive = higher.

Legend:
Assay in all cases: DTP human tumour cell line panel, 48 h
NCI-H23 = test system: NCI-H23
PC-3 = test system: PC-3
HT-29 = test system: HT-29
MCF7 = test system: MCF7
DU-145 = test system: DU-145
A498 = test system: A498
CAKI-1 = test system: CAKI-1
SF-295 = test system: SF-295
NCI-H460 = test system: NCI-H460
M14 = test system: M14
HOP-92 = test system: HOP-92
RXF 393 = test system: RXF 393
SNB-19 = test system: SNB-19
SK-MEL-28 = test system: SK-MEL-28
HCT-15 = test system: HCT-15
NCI/ADR-RES = test system: NCI/ADR-RES
NCI-H522 = test system: NCI-H522
OVCAR-4 = test system: OVCAR-4
OVCAR-3 = test system: OVCAR-3
MDA-MB-435 = test system: MDA-MB-435

For O=[N+]([O-])c1ccc(N2CCC(CCCC3CCN(c4ccc([N+](=O)[O-])cc4[N+](=O)[O-])CC3)CC2)c([N+](=O)[O-])c1, the GI50 (NCI-H23) was 21.2 µM (inactive), the GI50 (PC-3) was 15.8 µM (inactive) and the GI50 (HT-29) was 8.11 µM (inactive). The GI50 (MCF7) was 14.2 µM (inactive), the GI50 (DU-145) was 21.7 µM (inactive) and the GI50 (A498) was 17 µM (inactive). The GI50 (CAKI-1) was 19 µM (inactive), the GI50 (SF-295) was 17.4 µM (inactive) and the GI50 (NCI-H460) was 14.3 µM (inactive). The GI50 (M14) was 13.2 µM (inactive), the GI50 (HOP-92) was 11 µM (inactive) and the GI50 (RXF 393) was 15.3 µM (inactive). The GI50 (SNB-19) was 16.1 µM (inactive), the GI50 (SK-MEL-28) was 12.7 µM (inactive) and the GI50 (HCT-15) was 18.3 µM. For the same molecule, the GI50 (NCI/ADR-RES) was 20.7 µM (inactive), the GI50 (NCI-H522) was 18.2 µM (inactive) and the GI50 (OVCAR-4) was 12.9 µM (inactive). For the same molecule, the GI50 (OVCAR-3) was 18 µM (inactive) and the GI50 (MDA-MB-435) was 13.9 µM (inactive).
With CC(CCCC1SCC2NC(=O)NC21)C(=O)O (stereo not given) the GI50 (NCI-H23) was > 100 µM (inactive), the GI50 (PC-3) was > 100 µM (inactive) and the GI50 (HT-29) was > 100 µM (inactive). For the same molecule, the GI50 (MCF7) was > 100 µM (inactive), the GI50 (DU-145) was > 100 µM (inactive) and the GI50 (A498) was > 100 µM (inactive). The GI50 (CAKI-1) was > 100 µM (inactive), the GI50 (SF-295) was > 100 µM (inactive) and the GI50 (NCI-H460) was > 100 µM (inactive). For the same molecule, the GI50 (M14) was > 100 µM (inactive), the GI50 (HOP-92) was > 100 µM (inactive) and the GI50 (RXF 393) was > 100 µM (inactive). The GI50 (SNB-19) was > 100 µM (inactive), the GI50 (SK-MEL-28) was > 100 µM (inactive) and the GI50 (HCT-15) was greater than 100 µM. The GI50 (NCI/ADR-RES) was > 100 µM (inactive), the GI50 (NCI-H522) was > 100 µM (inactive) and the GI50 (OVCAR-4) was > 100 µM (inactive). For the same molecule, the GI50 (OVCAR-3) was > 100 µM (inactive) and the GI50 (MDA-MB-435) was > 100 µM (inactive).
In the case of CCCC(=O)Nc1cc(C(=O)N2C[C@@H]3C[C@]34C2=CC(=O)c2[nH]cc(C)c24)n(COC)c1, the GI50 (NCI-H23) is reported as 1.56 µM (inactive), the GI50 (PC-3) is reported as 7.33 µM (inactive) and the GI50 (HT-29) is reported as 8.55 µM (inactive). For the same molecule, the GI50 (MCF7) was 1.36 µM (inactive), the GI50 (DU-145) was 2.54 µM (inactive) and the GI50 (A498) was 10 µM (inactive). For the same molecule, the GI50 (CAKI-1) was 2.21 µM (inactive), the GI50 (SF-295) was 19.9 µM (inactive) and the GI50 (NCI-H460) was 6.64 µM (inactive). For the same molecule, the GI50 (M14) was 12.4 µM (inactive), the GI50 (HOP-92) was 1.4 µM (inactive) and the GI50 (RXF 393) was 1.84 µM (inactive). For the same molecule, the GI50 (SNB-19) was 12.4 µM (inactive), the GI50 (SK-MEL-28) was 7.48 µM (inactive) and the GI50 (HCT-15) was 15.9 µM. The GI50 (NCI/ADR-RES) was 13.9 µM (inactive), the GI50 (NCI-H522) was 0.977 µM (active) and the GI50 (OVCAR-4) was 8.02 µM (inactive). The GI50 (OVCAR-3) was 6.81 µM (inactive) and the GI50 (MDA-MB-435) was 9.06 µM (inactive).
For N#CC(C#N)=C1SC(=N\c2ccccc2)/C(=N/c2ccccc2)N1c1ccccc1, the GI50 (NCI-H23) was 29.6 µM (inactive), the GI50 (PC-3) was 7.6 µM (inactive) and the GI50 (HT-29) was 24.2 µM (inactive). The GI50 (MCF7) was 13.4 µM (inactive), the GI50 (DU-145) was 42.9 µM (inactive) and the GI50 (A498) was > 52.2 µM (inactive). For the same molecule, the GI50 (CAKI-1) was 11.8 µM (inactive), the GI50 (SF-295) was 25.2 µM (inactive) and the GI50 (NCI-H460) was 19.2 µM (inactive). For the same molecule, the GI50 (M14) was 25.3 µM (inactive), the GI50 (HOP-92) was 6.82 µM (inactive) and the GI50 (RXF 393) was 11 µM (inactive). For the same molecule, the GI50 (SNB-19) was 40.2 µM (inactive), the GI50 (SK-MEL-28) was 22 µM (inactive) and the GI50 (HCT-15) was 2.03 µM. The GI50 (NCI/ADR-RES) was 26.4 µM (inactive), the GI50 (NCI-H522) was 1.94 µM (inactive) and the GI50 (OVCAR-4) was 13.2 µM (inactive). The GI50 (OVCAR-3) was 2.37 µM (inactive) and the GI50 (MDA-MB-435) was 10.6 µM (inactive).
CO/C=C(/C(=O)OC)c1ccccc1COc1cccc(C(F)(F)F)c1 was tested, and the GI50 (NCI-H23) was 2.26 µM (inactive), the GI50 (PC-3) was 7.43 µM (inactive) and the GI50 (HT-29) was 4.14 µM (inactive). For the same molecule, the GI50 (MCF7) was 5.35 µM (inactive), the GI50 (DU-145) was 11.6 µM (inactive) and the GI50 (A498) was 4.85 µM (inactive). For the same molecule, the GI50 (CAKI-1) was 4.84 µM (inactive), the GI50 (SF-295) was 3.3 µM (inactive) and the GI50 (NCI-H460) was 1.22 µM (inactive). The GI50 (M14) was 68.7 µM (inactive), the GI50 (HOP-92) was 5.65 µM (inactive) and the GI50 (RXF 393) was 11.6 µM (inactive). The GI50 (SNB-19) was 22.1 µM (inactive), the GI50 (SK-MEL-28) was 22.6 µM (inactive) and the GI50 (HCT-15) was 4.19 µM. The GI50 (NCI/ADR-RES) was 5.31 µM (inactive), the GI50 (NCI-H522) was 0.526 µM (active) and the GI50 (OVCAR-4) was 8 µM (inactive). For the same molecule, the GI50 (OVCAR-3) was 10.2 µM (inactive) and the GI50 (MDA-MB-435) was 1.01 µM (active).
For COC(=O)c1c(O)ccc2c1c1c(n2Cc2ccccc2OC)C(=O)c2ccccc2C1=O, the GI50 (NCI-H23) was 14.1 µM (inactive), the GI50 (PC-3) was 10.4 µM (inactive) and the GI50 (HT-29) was 8.18 µM (inactive). For the same molecule, the GI50 (MCF7) was 6.34 µM (inactive), the GI50 (DU-145) was 13.3 µM (inactive) and the GI50 (A498) was 40 µM (inactive). For the same molecule, the GI50 (CAKI-1) was 15.8 µM (inactive), the GI50 (SF-295) was 18.1 µM (inactive) and the GI50 (NCI-H460) was 3.78 µM (inactive). The GI50 (M14) was 8.45 µM (inactive), the GI50 (HOP-92) was 3.78 µM (inactive) and the GI50 (RXF 393) was 13.1 µM (inactive). The GI50 (SNB-19) was 27.2 µM (inactive), the GI50 (SK-MEL-28) was 15.8 µM (inactive) and the GI50 (HCT-15) was 5.16 µM. For the same molecule, the GI50 (NCI/ADR-RES) was 6.95 µM (inactive), the GI50 (NCI-H522) was 11 µM (inactive) and the GI50 (OVCAR-4) was 11.7 µM (inactive). The GI50 (OVCAR-3) was 10 µM (inactive) and the GI50 (MDA-MB-435) was 10.3 µM (inactive).
